Where “and” joins values, the source holds several entries; their conditions need not be identical. Identical values can stand only once.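 48-hour exposure; five concentrations; linearly interpolated endpoints. Abbreviation: GI50, concentration required for 50% inhibition of growth. The concentration for full growth arrest is given as TGI.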
Tests used:
Experiment in all cases: growth of human tumour cells (NCI), 48 h
HCC-2998 colon = tested on: HCC-2998 colon
HOP-92 NSCLC = tested on: HOP-92 NSCLC
RPMI-8226 leukemia = tested on: RPMI-8226 leukemia
SF-268 CNS = tested on: SF-268 CNS
SK-MEL-5 melanoma = tested on: SK-MEL-5 melanoma
SNB-75 CNS = tested on: SNB-75 CNS
SR leukemia = tested on: SR leukemia
U251 CNS = tested on: U251 CNS
UO-31 renal = tested on: UO-31 renal
HS 578T breast = tested on: HS 578T breast

## CCCCCCCCCC1CC(=O)OC2=C1C(=O)CCC2 (configuration not stated)
HCC-2998 colon
  TGI: > 100 µM
HOP-92 NSCLC
  TGI: > 100 µM
RPMI-8226 leukemia
  TGI: > 100 µM
SF-268 CNS
  TGI: > 100 µM
SK-MEL-5 melanoma
  TGI: > 100 µM
SNB-75 CNS
  TGI: > 100 µM
SR leukemia
  TGI: > 100 µM
U251 CNS
  TGI: > 100 µM
UO-31 renal
  TGI: > 100 µM

## CC1C(c2ccccc2)N(C)C(c2ccccc2)C(C)C1(O)c1ccccc1 (configuration not stated)
HCC-2998 colon
  TGI: > 100 µM
HOP-92 NSCLC
  TGI: > 100 µM
SF-268 CNS
  TGI: > 100 µM
SK-MEL-5 melanoma
  TGI: > 100 µM
SNB-75 CNS
  TGI: > 100 µM
U251 CNS
  TGI: > 100 µM
UO-31 renal
  TGI: > 100 µM

## CCOC(=O)C1=C(Nc2ccc(OC)cc2)C(N)=NC1=N
HCC-2998 colon
  GI50: 3.94 µM
  TGI: > 100 µM
HOP-92 NSCLC
  GI50: 2.56 µM
  TGI: > 100 µM
HS 578T breast
  GI50: 4.17 µM
  TGI: > 100 µM
SF-268 CNS
  GI50: 7.87 µM
  TGI: > 100 µM
SK-MEL-5 melanoma
  GI50: 0.57 µM
  TGI: 55.8 µM
SNB-75 CNS
  GI50: 3.03 µM
  TGI: > 100 µM
SR leukemia
  GI50: 2.31 µM
  TGI: > 100 µM
U251 CNS
  GI50: 3.81 µM
  TGI: > 100 µM
UO-31 renal
  GI50: 6.29 µM
  TGI: > 100 µM

## Cc1[nH]nc(C(F)(F)F)c1Cc1sc2c(c1C(=O)N1C[C@](C)(O)CO1)c(=O)n(C)c(=O)n2C(C)C
HCC-2998 colon
  GI50: > 100 µM
  TGI: > 100 µM
HOP-92 NSCLC
  GI50: > 100 µM
  TGI: > 100 µM
HS 578T breast
  GI50: > 100 µM
  TGI: > 100 µM
RPMI-8226 leukemia
  GI50: > 100 µM
  TGI: > 100 µM
SF-268 CNS
  GI50: > 100 µM
  TGI: > 100 µM
SK-MEL-5 melanoma
  GI50: > 100 µM
  TGI: > 100 µM
SNB-75 CNS
  GI50: > 100 µM
  TGI: > 100 µM
U251 CNS
  GI50: > 100 µM
  TGI: > 100 µM
UO-31 renal
  GI50: > 100 µM
  TGI: > 100 µM

## COc1cc(/C=C2\[C@@H]3NC(Cc4c(OC)c(C)c(OC)c(OC)c43)C(=O)N2Cc2ccccc2)c(OC)c(C)c1OC
HCC-2998 colon
  TGI: > 100 µM
HOP-92 NSCLC
  TGI: 69.1 µM
RPMI-8226 leukemia
  TGI: 91.8 µM
SF-268 CNS
  TGI: > 100 µM
SK-MEL-5 melanoma
  TGI: > 100 µM
SNB-75 CNS
  TGI: > 100 µM
SR leukemia
  TGI: 62.8 µM
U251 CNS
  TGI: > 100 µM
UO-31 renal
  TGI: 80.5 µM

## O=C(Nc1ccc(Cl)c(Cl)c1)c1ccc(NC2=C(Cl)C(=O)N(Cc3ccccc3)C2=O)cc1
HS 578T breast
  GI50: 5.37 µM
  TGI: 27 µM
RPMI-8226 leukemia
  GI50: 2.02 µM
  TGI: 4.29 µM
SF-268 CNS
  GI50: 8.26 µM
  TGI: 24 µM
SK-MEL-5 melanoma
  GI50: 5.02 µM
  TGI: 17.9 µM
SNB-75 CNS
  GI50: 16.1 µM
  TGI: 56.4 µM
SR leukemia
  GI50: 2.23 µM
  TGI: 5.27 µM
UO-31 renal
  GI50: 13.1 µM
  TGI: 25.8 µM

## CCCCCCCCCCCCCCNCC(OC)OC
HCC-2998 colon
  TGI: 33.4 µM
HOP-92 NSCLC
  TGI: 23.9 µM
SF-268 CNS
  TGI: 39.4 µM
SK-MEL-5 melanoma
  TGI: 29.3 µM
SNB-75 CNS
  TGI: 26.9 µM
U251 CNS
  TGI: 31.6 µM
UO-31 renal
  TGI: 25.7 µM

## CCO/C=C\C12CCCC1NC(c1ccccc1)(c1ccccc1)O2 (configuration not stated)
HOP-92 NSCLC
  TGI: 52.3 µM
SF-268 CNS
  TGI: > 100 µM
SK-MEL-5 melanoma
  TGI: 31.1 µM
SNB-75 CNS
  TGI: 78.5 µM
U251 CNS
  TGI: > 100 µM
UO-31 renal
  TGI: 73.6 µM

## Cc1ccc(NC(=O)COc2ccc(Cl)cc2)cc1Cl
HOP-92 NSCLC
  TGI: > 100 µM
HS 578T breast
  TGI: > 100 µM
RPMI-8226 leukemia
  TGI: > 100 µM
SF-268 CNS
  TGI: > 100 µM
SK-MEL-5 melanoma
  TGI: > 100 µM
SNB-75 CNS
  TGI: > 100 µM
SR leukemia
  TGI: 69.7 µM
U251 CNS
  TGI: > 100 µM
UO-31 renal
  TGI: > 100 µM

## CC1(C)CC(=O)C(CC2C(=O)CCCC2=O)C(=O)C1
HCC-2998 colon
  TGI: > 100 µM
SF-268 CNS
  TGI: > 100 µM
SK-MEL-5 melanoma
  TGI: > 100 µM
SNB-75 CNS
  TGI: > 100 µM
SR leukemia
  TGI: > 100 µM
U251 CNS
  TGI: > 100 µM
UO-31 renal
  TGI: > 100 µM

## CC1=C(CCC(C)CO)O[C@H]2C[C@H]3[C@@H]4CC[C@H]5C[C@@H](O)CC[C@]5(C)[C@H]4CC(=O)[C@]3(C)[C@@H]12 (some centres not stated)
HOP-92 NSCLC
  TGI: 67.3 µM
HS 578T breast
  TGI: 52.5 µM
RPMI-8226 leukemia
  TGI: 13.8 µM
SF-268 CNS
  TGI: 57.6 µM
SK-MEL-5 melanoma
  TGI: 23.5 µM
SNB-75 CNS
  TGI: 50.5 µM
SR leukemia
  TGI: 36.4 µM
U251 CNS
  TGI: 37.8 µM
UO-31 renal
  TGI: 33.3 µM

## C=C1C(=O)O[C@@H]2/C=C(/C)[C@@H](OC(C)=O)C[C@@H](O)/C(C)=C\[C@@H](OC(=O)[C@]3(C)O[C@@H]3C)[C@@H]12
HCC-2998 colon
  TGI: 34.5 µM
HOP-92 NSCLC
  TGI: 26.7 µM
HS 578T breast
  TGI: > 100 µM
RPMI-8226 leukemia
  TGI: 26.3 µM
SF-268 CNS
  TGI: 41.8 µM
SK-MEL-5 melanoma
  TGI: 24.7 µM
SNB-75 CNS
  TGI: 37.6 µM
SR leukemia
  TGI: 21.5 µM
U251 CNS
  TGI: 31.3 µM

## COc1cc(C2c3cc4c(cc3[C@@H](NC3CCN(Cc5ccccc5)CC3)C3COC(=O)[C@H]23)OCO4)cc(OC)c1O (some centres not stated)
HCC-2998 colon
  TGI: 1.13 µM and 0.427 µM
HOP-92 NSCLC
  GI50: 0.143 µM and 0.026 µM
  TGI: 0.73 µM and 0.0934 µM
RPMI-8226 leukemia
  GI50: 0.151 µM and 0.054 µM
  TGI: 2.82 µM and 0.465 µM
SF-268 CNS
  TGI: 1.98 µM and 0.584 µM
SK-MEL-5 melanoma
  GI50: 0.206 µM and 0.0739 µM
  TGI: 1.4 µM and 0.373 µM
SNB-75 CNS
  GI50: 0.0324 µM and 0.218 µM
  TGI: 1.79 µM and 0.636 µM
SR leukemia
  TGI: 0.02 µM
U251 CNS
  GI50: 0.115 µM and 0.026 µM
  TGI: 0.594 µM and 0.183 µM
UO-31 renal
  GI50: 0.214 µM and 0.0879 µM
  TGI: 1.11 µM and 0.275 µM

## C[C@@H]1CC[C@@H]2[C@@H]1[C@H](OC(=O)/C=C/C1CCCCC1)[C@]1(C3CCCCC3)C[C@@H](OC(=O)CO)[C@@]2(C)O1
HCC-2998 colon
  GI50: 16 µM
  TGI: 29.6 µM
HOP-92 NSCLC
  GI50: 7.14 µM
  TGI: 19.6 µM
HS 578T breast
  GI50: 0.0162 µM
  TGI: 0.0556 µM
RPMI-8226 leukemia
  GI50: 15.2 µM
  TGI: 34.5 µM
SF-268 CNS
  GI50: 0.859 µM
  TGI: 19.7 µM
SK-MEL-5 melanoma
  GI50: 14 µM
  TGI: 26.6 µM
SNB-75 CNS
  GI50: 1.32 µM
  TGI: 16.5 µM
SR leukemia
  GI50: 14 µM
  TGI: 32.9 µM
U251 CNS
  GI50: 13.7 µM
  TGI: 26.1 µM

## CC(C)(C)NCC(O)c1ccccc1Cl (configuration not stated)
HCC-2998 colon
  GI50: > 100 µM
  TGI: > 100 µM
HOP-92 NSCLC
  GI50: > 100 µM
  TGI: > 100 µM
HS 578T breast
  GI50: > 100 µM
  TGI: > 100 µM
RPMI-8226 leukemia
  GI50: > 100 µM
  TGI: > 100 µM
SF-268 CNS
  GI50: > 100 µM
  TGI: > 100 µM
SK-MEL-5 melanoma
  GI50: > 100 µM
  TGI: > 100 µM
SNB-75 CNS
  GI50: > 100 µM
  TGI: > 100 µM
U251 CNS
  GI50: > 100 µM
  TGI: > 100 µM
UO-31 renal
  GI50: > 100 µM
  TGI: > 100 µM

## CC(=O)OC1CC2(C)C(=CC1C1SCCS1)CCC1C2CCC2(C)C(OC(C)=O)CCC12 (configuration not stated)
HOP-92 NSCLC
  TGI: > 100 µM
HS 578T breast
  TGI: 49.9 µM
RPMI-8226 leukemia
  TGI: > 100 µM
SF-268 CNS
  TGI: > 100 µM
SK-MEL-5 melanoma
  TGI: > 100 µM
SNB-75 CNS
  TGI: 63.1 µM
SR leukemia
  TGI: > 100 µM
U251 CNS
  TGI: > 100 µM
UO-31 renal
  TGI: > 100 µM

## NC1CC(=O)c2c(-c3cccs3)sc(-c3cccs3)c21 (configuration not stated)
HOP-92 NSCLC
  GI50: 16.6 µM
  TGI: 66.2 µM
HS 578T breast
  GI50: 36.7 µM
  TGI: > 100 µM
RPMI-8226 leukemia
  GI50: 12.3 µM
  TGI: 49.7 µM
SF-268 CNS
  GI50: 30.8 µM
  TGI: > 100 µM
SK-MEL-5 melanoma
  GI50: 28 µM
  TGI: > 100 µM
SNB-75 CNS
  GI50: 22.6 µM
  TGI: 89.8 µM
SR leukemia
  GI50: 7.03 µM
  TGI: > 100 µM
U251 CNS
  GI50: 16.7 µM
  TGI: 34 µM
UO-31 renal
  GI50: 24.7 µM
  TGI: > 100 µM

## COc1ccc(N=NC2=C(O)CCC2=O)cc1
HCC-2998 colon
  TGI: > 100 µM
HOP-92 NSCLC
  TGI: > 100 µM
SF-268 CNS
  TGI: > 100 µM
SK-MEL-5 melanoma
  TGI: > 100 µM
SNB-75 CNS
  TGI: > 100 µM
U251 CNS
  TGI: > 100 µM
UO-31 renal
  TGI: > 100 µM

— PubChem BioAssay (NCI)
